According to ChEMBL document CHEMBL1268873, “Nitrile-containing pharmaceuticals: efficacious roles of the nitrile pharmacophore” (J Med Chem, 2010):
≈ marks a conversion by molar mass, not a printed value.

What was measured:
L1210 = test: Cytotoxicity against mouse L1210 cells; type: functional, cell-based; settings: for IC50: Mus musculus, L1210
KB = test: Cytotoxicity against human KB cells; type: functional, cell-based
[1] = Inhibition of HIV RT; design: species or system Human immunodeficiency virus

IC50 [1] | Compound | IC5 (L1210) | IC50 (KB) | IC50 (L1210)
– | COc1cc([C@@H]2c3cc4c(cc3[C@@H](C#N)[C@H]3COCC23)OCO4)cc(OC)c1OC (stereo not given in full) | 3.48 ng/mL | 0.155 µg/mL (≈ 0.379 µM) | –
– | COc1cc([C@@H]2c3cc4c(cc3[C@@H](C(=O)O)[C@H]3COCC23)OCO4)cc(OC)c1OC (stereo not given in full) | – | 10 µg/mL (≈ 23.3 µM) | 0.164 µg/mL (≈ 0.383 µM)
350 nM | CCc1nn(CCO)c(CC)c1Oc1cccc(C#N)c1 | – | – | –
– | COc1cc([C@@H]2c3cc4c(cc3[C@@H](O[C@@H]3O[C@@H]5CO[C@H](C)O[C@H]5[C@H](O)[C@H]3O)[C@H]3COCC23)OCO4)cc(OC)c1OC (stereo not given in full) | – | 0.308 µg/mL (≈ 0.523 µM) | 0.155 µg/mL (≈ 0.263 µM)
560 nM | Cc1c(Oc2cc(Cl)cc(Cl)c2)c(C(C)C)nn1CCO | – | – | –
119 nM | CCc1nn(CCO)c(CC)c1Oc1cc(C#N)cc(C#N)c1 [LERSIVIRINE] | – | – | –

Compound | IC50 [1] | IC5 (L1210) | IC50 (KB) | IC50 (L1210)
CC(C)c1nc(COC(N)=O)n(Cc2ccncc2)c1Sc1cc(Cl)cc(Cl)c1 [CAPRAVIRINE] | 93 nM | – | – | –
